Here are results for 20 molecules from patent publication US20080269241A1, “BICYCLIC AMINOPROPYL TETRAHYDRO-PYRAZOLO-PYRIDINE MODULATORS OF CATHEPSIN S” (priority 2007, published 2008).

Usually IC50 stands for the concentration at which inhibition is half-maximal.

The target of this test is T1, human cathepsin S (CatS) (Homo sapiens, UniProt P25774).
T1 construct: made in house; host or cells: baculovirus system (insect cells)
T1 sequence (P25774 115-331): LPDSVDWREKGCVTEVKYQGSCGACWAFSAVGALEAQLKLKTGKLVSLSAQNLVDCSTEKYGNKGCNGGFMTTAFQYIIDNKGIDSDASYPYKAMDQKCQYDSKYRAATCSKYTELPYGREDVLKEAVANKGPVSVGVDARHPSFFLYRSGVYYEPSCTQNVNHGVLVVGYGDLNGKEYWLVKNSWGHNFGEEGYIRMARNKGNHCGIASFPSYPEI
Nature of the test: Recombinant human cathepsin S (CatS) fluorogenic substrate inhibition assay. The settings on record: recombinant human CatS, 10 μM Z-Valine-Valine-Arginine-AMC, pH 5.0; average of results obtained; read-out: CatS IC50. Format: biochemical. How it is done: Recombinant human cathepsin S (CatS) was expressed in the baculovirus system and purified in one step with a thiopropyl-sepharose column. […] The assay is run in 150 mM sodium acetate pH 5.0 containing 1.5 mM DTT and 150 mM NaCl. […] Measurements are taken every min for 20 min. The rate is calculated from the slope of the increase in fluorescence and the percent inhibition is calculated from this.
Consider `CC(C)=CC(=O)NCc1cc(-c2nn(CCCN3CCC(N4CCCC4=O)CC3)c3c2CN(S(C)(=O)=O)CC3)ccc1C(F)(F)F` [Example 42, 3-Methyl-but-2-enoic acid 5-(5-methanesulfonyl-1-{3-[4-(2-oxo-pyrrolidin-1-yl)-piperidin-1-yl]-propyl}-4,5,6,7-tetrahydro-1H-pyrazolo[4,3-c]pyridin-3-yl)-2-trifluoromethyl-benzylamide], for which the IC50 turned out to be 30 nM. Consider `CS(=O)(=O)N1CCc2c(c(-c3ccc(Cl)c(CNC(=O)c4ccc(F)cc4)c3)nn2CC(O)CN2CCC(N3CCCC3)CC2)C1` (centres unmarked) [Example 14, N-(2-Chloro-5-{1-[2-hydroxy-3-(4-pyrrolidin-1-yl-piperidin-1-yl)-propyl]-5-methanesulfonyl-4,5,6,7-tetrahydro-1H-pyrazolo[4,3-c]pyridin-3-yl}-benzyl)-4-fluoro-benzamide], for which the IC50 was 100 nM. The value for `CN1CCN(CC(=O)NCc2cc(-c3nn(CCCN4CCC(N5CCCC5=O)CC4)c4c3CN(S(C)(=O)=O)CC4)ccc2C(F)(F)F)CC1` [Example 180, N-[5-(5-Methanesulfonyl-1-{3-[4-(2-oxo-pyrrolidin-1-yl)-piperidin-1-yl]-propyl}-4,5,6,7-tetrahydro-1H-pyrazolo[4,3-c]pyridin-3-yl)-2-trifluoromethyl-benzyl]-2-(4-methyl-piperazin-1-yl)-acetamide] was 3730 nM; that for `CC(C)CC(=O)NCc1cc(-c2nn(CC(O)CN3CCC(N4CCOCC4)CC3)c3c2CN(S(C)(=O)=O)CC3)ccc1C(F)(F)F` (centres unmarked) [Example 254, N-(5-{1-[2-Hydroxy-3-(4-morpholin-4-yl-piperidin-1-yl)-propyl]-5-methanesulfonyl-4,5,6,7-tetrahydro-1H-pyrazolo[4,3-c]pyridin-3-yl}-2-trifluoromethyl-benzyl)-3-methyl-butyramide] was 120 nM. For the molecule `CS(=O)(=O)N1CCc2c(c(-c3ccc(C(F)(F)F)c(CNC(=O)c4ccco4)c3)nn2CC(O)CN2CCC(N3CCCC3=O)CC2)C1` (centres unmarked) [Example 52, Furan-2-carboxylic acid 5-(1-{2-hydroxy-3-[4-(2-oxo-pyrrolidin-1-yl)-piperidin-1-yl]-propyl}-5-methanesulfonyl-4,5,6,7-tetrahydro-1H-pyrazolo[4,3-c]pyridin-3-yl)-2-trifluoromethyl-benzylamide], the half-maximal inhibitory concentration (IC50) amounted to 190 nM.

As for `Cc1ccc(C(=O)Nc2cc(-c3nn(CCCN4CCN(c5cccc(Cl)c5)CC4)c4c3CN(S(C)(=O)=O)CC4)ccc2Cl)cc1` [Example 198, N-[2-Chloro-5-(1-{3-[4-(3-chloro-phenyl)-piperazin-1-yl]-propyl}-5-methanesulfonyl-4,5,6,7-tetrahydro-1H-pyrazolo[4,3-c]pyridin-3-yl)-phenyl]-4-methyl-benzamide], the IC50 came out at 410 nM. The figure for `CC(C)CC(=O)NCc1cc(-c2nn(CC(O)CN3CCC(N4CC(O)CC4=O)CC3)c3c2CN(S(C)(=O)=O)CC3)ccc1C(F)(F)F` (centres unmarked) [Example 253, N-[5-(1-{2-Hydroxy-3-[4-(4-hydroxy-2-oxo-pyrrolidin-1-yl)-piperidin-1-yl]-propyl}-5-methanesulfonyl-4,5,6,7-tetrahydro-1H-pyrazolo[4,3-c]pyridin-3-yl)-2-trifluoromethyl-benzyl]-3-methyl-butyramide] is 90 nM; for `CS(=O)(=O)N1CCc2c(c(-c3ccc(C(F)(F)F)c(CNC(=O)c4ccc(N5CCOCC5)nc4)c3)nn2CC(O)CN2CCC(N3CCCC3=O)CC2)C1` (centres unmarked) [Example 132, N-[5-(1-{2-Hydroxy-3-[4-(2-oxo-pyrrolidin-1-yl)-piperidin-1-yl]-propyl}-5-methanesulfonyl-4,5,6,7-tetrahydro-1H-pyrazolo[4,3-c]pyridin-3-yl)-2-trifluoromethyl-benzyl]-6-morpholin-4-yl-nicotinamide] it is 340 nM. The value for `CS(=O)(=O)N1CCc2c(c(-c3ccc(C(F)(F)F)c(CNC(=O)c4cccs4)c3)nn2CC(O)CN2CCC(N3CCCC3=O)CC2)C1` (centres unmarked) [Example 105, Thiophene-2-carboxylic acid 5-(1-{2-hydroxy-3-[4-(2-oxo-pyrrolidin-1-yl)-piperidin-1-yl]-propyl}-5-methanesulfonyl-4,5,6,7-tetrahydro-1H-pyrazolo[4,3-c]pyridin-3-yl)-2-trifluoromethyl-benzylamide] was 40 nM; that for `CS(=O)(=O)N1CCc2c(c(-c3ccc(C(F)(F)F)c(CNC(=O)c4ccc(-c5ccccn5)s4)c3)nn2CC(O)CN2CCC(N3CCCC3=O)CC2)C1` (centres unmarked) [Example 121, 5-Pyridin-2-yl-thiophene-2-carboxylic acid 5-(1-{2-hydroxy-3-[4-(2-oxo-pyrrolidin-1-yl)-piperidin-1-yl]-propyl}-5-methanesulfonyl-4,5,6,7-tetrahydro-1H-pyrazolo[4,3-c]pyridin-3-yl)-2-trifluoromethyl-benzylamide] was 150 nM.

For `CS(=O)(=O)N1CCc2c(c(-c3ccc(C(F)(F)F)c(CNC(=O)c4ccc[nH]4)c3)nn2CC(O)CN2CCC(N3CCCC3=O)CC2)C1` (centres unmarked) [Example 124, 1H-Pyrrole-2-carboxylic acid 5-(1-{2-hydroxy-3-[4-(2-oxo-pyrrolidin-1-yl)-piperidin-1-yl]-propyl}-5-methanesulfonyl-4,5,6,7-tetrahydro-1H-pyrazolo[4,3-c]pyridin-3-yl)-2-trifluoromethyl-benzylamide], the IC50 came to 180 nM. On to `CCc1ccc(C(=O)Nc2cc(-c3nn(CCCN4CCN(c5cccc(Cl)c5)CC4)c4c3CN(S(C)(=O)=O)CC4)ccc2Cl)cc1` [Example 230, N-[2-Chloro-5-(1-{3-[4-(3-chloro-phenyl)-piperazin-1-yl]-propyl}-5-methanesulfonyl-4,5,6,7-tetrahydro-1H-pyrazolo[4,3-c]pyridin-3-yl)-phenyl]-4-ethyl-benzamide], for which the half-maximal inhibitory concentration (IC50) was found to be 780 nM. For `CS(=O)(=O)N1CCc2c(c(-c3ccc(C(F)(F)F)c(CNC(=O)c4ccc(Cl)s4)c3)nn2CC(O)CN2CCC(N3CCCC3=O)CC2)C1` (centres unmarked) [Example 6, 5-Chloro-thiophene-2-carboxylic acid 5-(1-{2-hydroxy-3-[4-(2-oxo-pyrrolidin-1-yl)-piperidin-1-yl]-propyl}-5-methanesulfonyl-4,5,6,7-tetrahydro-1H-pyrazolo[4,3-c]pyridin-3-yl)-2-trifluoromethyl-benzylamide], the half-maximal inhibitory concentration (IC50) turned out to be 30 nM. As for `CC(C)c1cccc(NCc2cc(-c3nn(CCCN4CCC(N5CCCC5=O)CC4)c4c3CN(S(C)(=O)=O)CC4)ccc2Cl)c1` [Example 211, 1-{1-[3-(3-{4-Chloro-3-[(3-isopropyl-phenylamino)-methyl]-phenyl}-5-methanesulfonyl-4,5,6,7-tetrahydro-pyrazolo[4,3-c]pyridin-1-yl)-propyl]-piperidin-4-yl}-pyrrolidin-2-one], the half-inhibitory concentration (IC50) stood at 370 nM. The figure for `CS(=O)(=O)N1CCc2c(c(-c3ccc(Cl)c(CNC(=O)c4ccc(F)cc4)c3)nn2CC(O)CN2CCC(N3CCCC3=O)CC2)C1` (centres unmarked) [Example 1, N-[2-Chloro-5-(1-{2-hydroxy-3-[4-(2-oxo-pyrrolidin-1-yl)-piperidin-1-yl]-propyl}-5-methanesulfonyl-4,5,6,7-tetrahydro-1H-pyrazolo[4,3-c]pyridin-3-yl)-benzyl]-4-fluoro-benzamide] is 20 nM; for `CS(=O)(=O)N1CCc2c(c(-c3ccc(C(F)(F)F)c(CNC(=O)CN4CCCC4)c3)nn2CCCN2CCC(N3CCCC3=O)CC2)C1` [Example 183, N-[5-(5-Methanesulfonyl-1-{3-[4-(2-oxo-pyrrolidin-1-yl)-piperidin-1-yl]-propyl}-4,5,6,7-tetrahydro-1H-pyrazolo[4,3-c]pyridin-3-yl)-2-trifluoromethyl-benzyl]-2-pyrrolidin-1-yl-acetamide] it is 800 nM.

As to `CC(C)CC(=O)NCc1cc(-c2nn(CC(O)CN3CCC(O)(c4ccc(Br)cc4)CC3)c3c2CN(S(C)(=O)=O)CC3)ccc1C(F)(F)F` (centres unmarked) [Example 287, N-[5-(1-{3-[4-(4-Bromo-phenyl)-4-hydroxy-piperidin-1-yl]-2-hydroxy-propyl}-5-methanesulfonyl-4,5,6,7-tetrahydro-1H-pyrazolo[4,3-c]pyridin-3-yl)-2-trifluoromethyl-benzyl]-3-methyl-butyramide], the IC50 was 60 nM. The value for `CC(C)=CC(=O)NCc1cc(-c2nn(CC(O)CN3CCN(c4ncccc4Cl)CC3)c3c2CN(S(C)(=O)=O)CC3)ccc1C(F)(F)F` (centres unmarked) [Example 262, 3-Methyl-but-2-enoic acid 5-(1-{3-[4-(3-chloro-pyridin-2-yl)-piperazin-1-yl]-2-hydroxy-propyl}-5-methanesulfonyl-4,5,6,7-tetrahydro-1H-pyrazolo[4,3-c]pyridin-3-yl)-2-trifluoromethyl-benzylamide] was 10 nM; that for `CS(=O)(=O)N1CCc2c(c(-c3ccc(C(F)(F)F)c(CNC(=O)CN4CCC(O)C4)c3)nn2CCCN2CCC(N3CCCC3=O)CC2)C1` (centres unmarked) [Example 184, 2-(3-Hydroxy-pyrrolidin-1-yl)-N-[5-(5-methanesulfonyl-1-{3-[4-(2-oxo-pyrrolidin-1-yl)-piperidin-1-yl]-propyl}-4,5,6,7-tetrahydro-1H-pyrazolo[4,3-c]pyridin-3-yl)-2-trifluoromethyl-benzyl]-acetamide] was 820 nM. The figure for `CS(=O)(=O)N1CCc2c(c(-c3ccc(C(F)(F)F)c(CNC(=O)N4CCOCC4)c3)nn2CCCN2CCC(N3CCCC3=O)CC2)C1` [Example 45, Morpholine-4-carboxylic acid 5-(5-methanesulfonyl-1-{3-[4-(2-oxo-pyrrolidin-1-yl)-piperidin-1-yl]-propyl}-4,5,6,7-tetrahydro-1H-pyrazolo[4,3-c]pyridin-3-yl)-2-trifluoromethyl-benzylamide] is 80 nM.
